Assay results: patent publication US20220282304A1, “SAME-SAMPLE ANTIBIOTIC SUSCEPTIBILITY TEST AND RELATED COMPOSITIONS, METHODS AND SYSTEMS” (CALIFORNIA INSTITUTE OF TECHNOLOGY, priority 2021, published 2022)

System: Escherichia coli K12
Assay: Digital same-sample filtration AST at four cell densities (Example 7)
Type: cell-based
Conditions: for treated condition EINAPV (fraction extracellular): untreated EINAPV 0; for Both (number of wells) / Empty (number of wells) / Extracellular only (number of wells) / Intracellular only (number of wells): 60 minutes 37° C., qPCR
Method: The inoculum was small enough that no detectable difference in the sample's optical density at 600 mm (OD600) was detectable by a spectrophotometer with a sensitivity of 0.01 absorbance units. After an incubation at 37° C., the media became turbid with an OD600 of 0.22 absorbance units after 2.25 hours of incubation.
In this experiment, the number and volume of sample partitions was restricted, for logistical reasons, to 96 partitions 10 μL in volume, specifically the wells of a 96-well plate. A goal was chosen of having a >98% chance of ending up with at least 48 empty partitions. When all partitions are the same volume, the following formula relates the expected number of empty partitions, the partition volume, and the density of cells.
N is the total number of partitions, n is the number of empty partitions, V is the partition volume, D is the density of cells, and t is a threshold probability chosen by the practitioner. Thus, in order to achieve digital sample partitioning with the available 96-well plate, each 10 μL sample of the specimen practically contains between 0.02 and 2.5 cells on average. In this experiment, densities of 0, 0.5, 1, and 2 cells per sample were targeted. Due to systematic bias in the conversion of OD600 to cell density, the actual densities achieved were closer to 0, 0.09375, 0.1875, and 0.375 cells per sample. The specimen itself was diluted to a density of 37.5 CFU/mL (0.0375 cells/μL), 18.75 CFU/mL, and 9.375 CFU/mL to achieve the target sample densities. For the 0 cell samples, the specimen comprised sterile media.
To begin the AST protocol, the 4 contrived clinical specimen dilutions were physically split into the 24 partitions each by transferring 10 μL of the sample, in 24 separate transfers (actually 3 transfers with a multichannel pipette of each dilution), to wells of a 96-well microtiter plate. Each well contained 15 μL of Mueller-Hinton Broth (MHB) growth media. Half of the wells (48) contained 0 μg/mL of dissolved ETP antibiotic and served as reference condition antibiotic exposures. The other half of the wells contained 1.67 μg/mL of ETP (for a final concentration of 1.0 μg/mL) and served as 48 treated condition antibiotic exposures. Thus, in total there were 8 groups of 12 replicate wells: a treated and an untreated group of wells for each of the four specimen dilutions. In actuality, however, due to operator error, 4 treated 0 cell conditions and 4 untreated 0 cell conditions were converted into the corresponding 0.1875 cell conditions.
The 96 antibiotic exposures were incubated at 37° C. for 60 minutes.
The entire volume of each antibiotic exposure was transferred to a Millipore® 96-well sterile polystyrene MultiScreenHTS® filter plate (Millipore-Sigma MSGVS2210). Each well of the filter plate contained a hydrophilic polyvinylidene fluoride (PVDF) filter membrane with a 0.22 μm pore size. A 96-well polypropylene microtiter plate was affixed to the bottom of the filter plate. At approximately 78 minutes after the start of the exposure, the antibiotic exposures were centrifuged at 2200 relative centrifugal force to speed the passage of the antibiotic exposure through the filter and into 96-well microtiter plate. The collected fluid was called the “filtrate.” It is expected that the filtrate will contain all or most of the extracellular nucleic acids present in the antibiotic exposure, but none of the intracellular nucleic acids in the antibiotic exposure.
As soon as possible (e.g. 0-10 minutes) after the centrifugation of the filter plate, […] of fresh MHB media was spun through the filters after the first centrifugation (above) to wash away residual extracellular nucleic acids present in the small amount (about 3 μL) of fluid wetting the filters. This wash fluid is not collected with the filtrates.
The filtrates were frozen at −80° C. to prevent hypothetical rRNA degradation. Lucigen DNA Extraction Buffer was not used to “extract” the filtrate DNA. […]

[1] = Treated 1.0 μg ETP/mL, batch culture dilution 0 cells, 8 partitions
[2] = Treated 1.0 μg ETP/mL, batch culture dilution 0.09375 cells, 12 partitions
[3] = Treated 1.0 μg ETP/mL, batch culture dilution 0.1875 cells, 16 partitions
[4] = Treated 1.0 μg ETP/mL, batch culture dilution 0.375 cells, 12 partitions
[5] = Treated 1.0 μg ETP/mL, batch culture dilution 0 cells
[6] = Treated 1.0 μg ETP/mL, batch culture dilution 0.09375 cells
[7] = Treated 1.0 μg ETP/mL, batch culture dilution 0.1875 cells
[8] = Treated 1.0 μg ETP/mL, batch culture dilution 0.375 cells

C[C@@H](O)[C@H]1C(=O)N2C(C(=O)O)=C(S[C@@H]3CN[C@H](C(=O)Nc4cccc(C(=O)O)c4)C3)[C@H](C)[C@H]12 [ETP, ertapenem]
treated condition EINAPV (fraction extracellular) (1.0 μg/mL ETP, non-zero dilution 0.09375 cells): 1
treated condition EINAPV (fraction extracellular) (1.0 μg/mL ETP, non-zero dilution 0.1875 cells): 1
treated condition EINAPV (fraction extracellular) (1.0 μg/mL ETP, non-zero dilution 0.375 cells): 1
susceptibility call (measured TRPQ higher than APTV) (1.0 μg/mL ETP, one pooled treated vs one pooled reference condition): susceptible
susceptibility call (binomial exact test) (1.0 μg/mL ETP, significance threshold 0.001): susceptible
Both (number of wells) [1]: 0
Empty (number of wells) [1]: 8
Extracellular only (number of wells) [1]: 0
Intracellular only (number of wells) [1]: 0
Both (number of wells) [2]: 0
Empty (number of wells) [2]: 10
Extracellular only (number of wells) [2]: 2
Intracellular only (number of wells) [2]: 0
Both (number of wells) [3]: 0
Empty (number of wells) [3]: 13
Extracellular only (number of wells) [3]: 3
Intracellular only (number of wells) [3]: 0
Both (number of wells) [4]: 0
Empty (number of wells) [4]: 2
Extracellular only (number of wells) [4]: 10
Intracellular only (number of wells) [4]: 0
Intact (expected number of cells) [5]: 0
Killed (expected number of cells) [5]: 0
Intact (expected number of cells) [6]: 0
Killed (expected number of cells) [6]: 2.14
Intact (expected number of cells) [7]: 0
Killed (expected number of cells) [7]: 3.32
Intact (expected number of cells) [8]: 0
Killed (expected number of cells) [8]: 15.69
estimated cells lysed, all treated samples pooled (Treated 1.0 μg ETP/mL, sum over dilutions, rounded to 21 lysis events): 21.25
